The text below walks through data of patent US8404279B2, “Method for improving the bud quality of a plant” (Bayer CropScience AG, priority 2007, dated 2013).

The test system of experiment [1] is flower bud dieback on pear trees (Conference variety). Kind of experiment: Flower bud quality field trial against flower bud dieback on young pear trees. It is filed as in vivo, pear trees (Conference cultivar). Here is the method: (§1) During three consecutive years 2004, 2005 and 2006, a trial was carried out on young pear trees of the Conference cultivar on a Quince Adams stock. The pear trees of this orchard were planted in 1999 according to the system of a single row at a planting distance of 3.5 m between the rows and 1.5 m in the row with a tree height of 3 m.
(§2) During the 2004 trial, three products were compared in an arbitrary block design with 10 trees per plot in four repeats: the observations were made on the 8 trees inside the plot. […] The applications were in the post-flower period at an interval of 10 days.
(§3) In 2005, the same applications were repeated on the same trees.
In 2006, the complete trial was repeated on new trees in the same orchard. The fosetyl-Al doses varying between 2 and 3.75 kg/ha of standard orchard (corresponding to doses varying from 1.33 to 2.50 kg/ha of foliar surface area) were applied in the post-flower period during the months of May and June at an interval of 5 or 10 days between the treatments. Benzothiadiazole applied at a dose of 200 g/ha of standard orchard (corresponding to a dose of 133 g/ha of foliar surface area) was included as reference product in order to induce plant defense reactions by the trees.
(§4) After one year during flowering, the effect of the treatments on the quality of the flower bud was evaluated. Statistical analysis of the various parameters is performed (Unistat Statistical Package, Version 5.5). The original or processed data are analyzed according to the General Linear Model and the treatment means are separated in a standard manner using the Duncan multiple classification test (5% level).

For experiment [2], the system named is pear trees (Conference cultivar). As to the kind of experiment: Productivity of the pear trees after the treatments (field trial). It is filed as in vivo. The conditions noted are these: 2006, treated 2004 and 2005; 3 x 0.2 kg/ha May interval 10 + 3 x 0.2 kg/ha June interval 14. Here is the method:
as §1, §2, §3, §4

The mark [3] stands for this setting: treated 2004, 2005 flower buds, 3 x 0.2 kg/ha May interval 10 + 3 x 0.2 kg/ha June interval 14.
The mark [4] stands for this setting: treated 2006, 2007 flower buds, 3 x 0.2 kg/ha May, interval 10.
[5] abbreviates: treated 2004, 2005 flower buds, 3 x dose 3 (kg/ha) May, interval 10.
Where [6] appears, read: treated 2004, 2005 flower buds, 3 x dose 11.25 (kg/ha) May, interval 10.

For `c1ccc2snnc2c1` [Benzothiadiazole, benzothiadiazole], the “Good quality buds (%) 1 yw S” value in experiment [1] (1-year old wood side position, treated 2004 and 2005, 2006 flower buds, 3 x 0.2 kg/ha May interval 10 + 3 x 0.2 kg/ha June interval 14) is 56.6%. In experiment [1] (1-year old wood terminal position, treated 2004 and 2005, 2006 flower buds, 3 x 0.2 kg/ha May interval 10 + 3 x 0.2 kg/ha June interval 14), the “Good quality buds (%) 1 yw T” value came to 54.6%. For the same compound, in experiment [1] (2-year old wood, treated 2004 and 2005, 2006 flower buds, 3 x 0.2 kg/ha May interval 10 + 3 x 0.2 kg/ha June interval 14), the “Good quality buds (%) 2 yw” value is 58.5%. Besides, the “activity on flower bud quality” value in experiment [1] (2004 treatments, 2005 buds, reference product) is given as “insufficient activity”. Besides, in experiment [1] (setting [3]), the “Buds of good quality” value is listed as 71.2% and the “Number of incomplete buds/tree” value stood at 22.5 buds/tree. The “Good quality buds (%) Per tree” value in experiment [1] (treated 2004 and 2005, 2006 flower buds, 3 x 0.2 kg/ha May interval 10 + 3 x 0.2 kg/ha June interval 14) came out at 62.8%. Moreover, in experiment [1] (setting [4]), the “Buds that have died back (%)” value came out at 43.5%, the “Good quality buds (%)” value turned out to be 44.2% and the “Number of incomplete buds/tree” value came to 12.3 buds/tree. In experiment [2], the “Average weight” value is 163.2 g, the Number of fruits/tree is listed as 113.88 fruits/tree and the “Productivity (kg/tree)” value came to 18.5 kg/tree.
As for potassium phosphonate, the “Buds of good quality” value is given as 89.5% in experiment [1] (setting [5]) and 92.4% in experiment [1] (setting [6]). Moreover, the “Number of incomplete buds/tree” value in experiment [1] (setting [5]) turned out to be 7.2 buds/tree; in experiment [1] (setting [6]) it was 4.8 buds/tree.
